Experimental data as given in patent publication US9765075B2, “Substituted bridged urea analogs as sirtuin modulators” (GLAXOSMITHKLINE LLC, priority 2013, dated 2017).
Read-outs that look alike come from different tables or passages of the source.

Molecular target: T1, SIRT1 (Homo sapiens, UniProt Q96EB6)
T1 sequence (Q96EB6 1-747): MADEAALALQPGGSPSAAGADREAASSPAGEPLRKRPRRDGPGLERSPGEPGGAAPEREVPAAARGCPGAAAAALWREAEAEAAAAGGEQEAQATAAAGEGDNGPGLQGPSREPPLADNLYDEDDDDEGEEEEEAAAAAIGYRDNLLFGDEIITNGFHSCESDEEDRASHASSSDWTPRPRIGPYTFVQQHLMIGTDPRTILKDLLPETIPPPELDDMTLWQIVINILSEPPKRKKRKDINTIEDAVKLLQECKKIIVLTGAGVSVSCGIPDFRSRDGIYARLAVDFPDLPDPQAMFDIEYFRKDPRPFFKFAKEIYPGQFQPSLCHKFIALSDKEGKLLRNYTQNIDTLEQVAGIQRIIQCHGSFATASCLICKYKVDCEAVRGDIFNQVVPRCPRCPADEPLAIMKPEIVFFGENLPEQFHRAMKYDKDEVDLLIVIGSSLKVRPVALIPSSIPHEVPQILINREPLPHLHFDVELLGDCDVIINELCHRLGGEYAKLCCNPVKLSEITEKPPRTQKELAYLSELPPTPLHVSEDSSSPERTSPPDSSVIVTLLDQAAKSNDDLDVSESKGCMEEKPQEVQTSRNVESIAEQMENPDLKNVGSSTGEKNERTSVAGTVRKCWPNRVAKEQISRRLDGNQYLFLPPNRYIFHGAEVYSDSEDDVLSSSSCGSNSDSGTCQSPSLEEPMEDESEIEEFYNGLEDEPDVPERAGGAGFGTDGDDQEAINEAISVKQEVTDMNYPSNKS
Assay: Trp mass spectrometry assay (SIRT1 activation)
Assay type: biochemical
Details: for Emax: percent maximum fold activation of SIRT1, read-out: Tryp % Fold Act
How it was run: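 N-His-tagged SIRT1 (10 nM), expressed in E. coli, was incubated with 0.5 μM Ac-RHKK(Ac)W-NH2 peptide and 120 μM NAD+ for 25 min at 25 °C in HEPES pH 7.5 with […]. The reaction was stopped with formic acid and O-acetyl-ADP-ribose or deacetylated peptide was quantified by mass spectrometry. Results are given as EC1.5 and percent maximal activation relative to DMSO control.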

[1] = concentration of test compound that results in 150% activation of SIRT1, Trp peptide substrate
[2] = Trp mass spectrometry assay, EC1.5 = concentration giving 150% activation of SIRT1
[3] = Trp mass spectrometry assay, EC1.5 = concentration of test compound that results in 150% activation of SIRT1

Row | Tryp AVG EC1.5 (μM) [1] | Emax (Trp peptide substrate) [%] | Emax (Trp mass spectrometry assay) [%] | Tryp AVG EC1.5 (μM) [2] | Tryp AVG EC1.5 (μM) [3] | SMILES
1 | A (EC1.5<1 μM) | ≥ 150 | – | – | – | O=C(Nc1cccc(-c2cnco2)c1)N1c2nc(-c3cccc(Cl)c3)ccc2N2CC[C@@H]1C2 [Example 235]
2 | – | – | < 150 | – | – | Cc1cccnc1NC(=O)N1c2nc(-c3cccc(C(F)(F)F)c3)ccc2N2CC[C@H]1C2 [Example 14]
3 | – | – | ≥ 150 | A (EC1.5<1 μM) | – | O=C(Nc1cccc(-c2ccoc2)n1)N1c2nc(-c3cccc(C(F)(F)F)c3)ccc2N2CC[C@H]1C2 [Example 654]
4 | B (EC1.5 1-25 μM) | ≥ 150 | – | – | – | O=C(Nc1nccs1)N1c2nc(N3CCCC(C(F)(F)F)C3)ccc2N2CCC[C@@H]1C2 (stereo partly drawn) [Example 310]
5 | – | – | < 150 | – | C (EC1.5>25 μM) | COc1cc(NC(=O)N2c3nc(-c4ccccc4C(F)(F)F)ccc3N3CC[C@H]2C3)ncn1 [Example 134]
6 | – | – | ≥ 150 | A (EC1.5<1 μM) | – | CCCn1cc(-c2cccc(NC(=O)N3c4nc(-c5cccc(C(F)(F)F)c5)ccc4N4CC[C@H]3C4)n2)cn1 [Example 656]
7 | A (EC1.5<1 μM) | ≥ 150 | – | – | – | O=C(Nc1cccnc1)N1c2nc(-c3cncc(C(F)(F)F)c3)ccc2N2CC[C@H]1C2 [Example 556]
8 | – | – | ≥ 150 | – | A (EC1.5<1 μM) | O=C(Nc1cnccn1)N1c2nc(-c3cccc(Cl)c3)ccc2N2CC[C@H]1C2 [Example 101]
9 | – | – | ≥ 150 | – | – | Cc1cc(C)nc(NC(=O)N2c3nc(-c4cccc(C(F)(F)F)c4)ccc3N3CC[C@H]2C3)c1 [Example 13]
10 | – | – | ≥ 150 | A (EC1.5<1 μM) | – | O=C(C1CC1)N1CCC(c2cccc(NC(=O)N3c4nc(-c5cccc(C(F)(F)F)c5)ccc4N4CC[C@H]3C4)c2)C1 (stereo partly drawn) [Example 637]
11 | A (EC1.5<1 μM) | ≥ 150 | – | – | – | O=C(Nc1ccccn1)N1c2nc(-c3cccc(CC(O)CO)c3)ccc2N2CC[C@H]1C2 (stereo partly drawn) [Example 354]
12 | – | – | ≥ 150 | A (EC1.5<1 μM) | – | O=C(Nc1nnc(-c2ccccn2)o1)N1c2nc(-c3cccc(C(F)(F)F)c3)ccc2N2CC[C@H]1C2 [Example 720]
13 | – | – | ≥ 150 | A (EC1.5<1 μM) | – | O=C(Nc1cccc(-c2cnco2)c1)N1c2nc(N3CCC[C@H](C(F)(F)F)C3)ccc2N2CC[C@H]1C2 [Example 718]
14 | A (EC1.5<1 μM) | ≥ 150 | – | – | – | O=C(Nc1cnccn1)N1c2nc(-c3ccnc(N4CCC(F)(F)C4)c3)ccc2N2CC[C@H]1C2 [Example 423]
15 | A (EC1.5<1 μM) | ≥ 150 | – | – | – | COc1cnc(NC(=O)N2c3nc(-c4ccnc(C)c4)ccc3N3CC[C@H]2C3)cn1 [Example 500]
16 | – | – | ≥ 150 | – | – | O=C(Nc1ccc(F)cn1)N1c2nc(-c3cccc(C(F)(F)F)c3)ccc2N2CCC[C@H]1C2 [Example 39]
17 | B (EC1.5 1-25 μM) | ≥ 150 | – | – | – | O=C(Nc1ccc2c(c1)CCC2)N1c2nc(-c3cccc(C(F)(F)F)c3)ccc2N2CC[C@H]1C2 [Example 624]
18 | A (EC1.5<1 μM) | ≥ 150 | – | – | – | CS(=O)(=O)c1cncc(-c2ccc3c(n2)N(C(=O)Nc2ccncn2)[C@H]2CCCN3C2)c1 [Example 379]
19 | B (EC1.5 1-25 μM) | ≥ 150 | – | – | – | COc1cc(NC(=O)N2c3nc(-c4cncc(F)c4)ccc3N3CCC2CC3)ncn1 [Example 579]
20 | – | – | ≥ 150 | A (EC1.5<1 μM) | – | C#CCOc1cccc(NC(=O)N2c3nc(-c4cccc(C5(C(F)(F)F)N=N5)c4)ccc3N3CC[C@H]2C3)c1 [Example 797]
21 | – | – | ≥ 150 | – | B (EC1.5 1-25 μM) | O=C(Nc1cnccn1)N1c2nc(-c3cccc(N4CCCC4)c3)ccc2N2CC[C@H]1C2 [Example 206]
22 | – | – | ≥ 150 | – | A (EC1.5<1 μM) | O=C(Nc1ccncc1)N1c2nc(-c3cccc(Cl)c3)ccc2N2CC[C@H]1C2 [Example 122]
23 | B (EC1.5 1-25 μM) | ≥ 150 | – | – | – | O=C(Nc1cnccn1)N1c2nc(-c3cc(C(F)(F)F)cc(C(F)(F)F)c3)ccc2C2CC[C@H]1C2 [Example 363]
24 | A (EC1.5<1 μM) | ≥ 150 | – | – | – | O=C(Nc1cccc(-c2cnco2)c1)N1c2nc(-c3cncc(Cl)c3)ccc2N2CCC1CC2 [Example 575]

Row | Tryp AVG EC1.5 (μM) [1] | Emax (Trp peptide substrate) [%] | Emax (Trp mass spectrometry assay) [%] | Tryp AVG EC1.5 (μM) [2] | Tryp AVG EC1.5 (μM) [3] | SMILES
25 | A (EC1.5<1 μM) | ≥ 150 | – | – | – | CS(=O)(=O)c1cncc(-c2ccc3c(n2)N(C(=O)Nc2cnccn2)[C@H]2CCCN3C2)c1 [Example 378]
26 | C (EC1.5>25 μM) | < 150 | – | – | – | O=C(Nc1ccncn1)N1c2nc(N3CCCNCC3)ccc2N2CCC[C@H]1C2 [Example 420]
27 | B (EC1.5 1-25 μM) | ≥ 150 | – | – | – | COc1ccc(-c2ccc3c(n2)N(C(=O)Nc2cnccn2)[C@H]2CCN3C2)cn1 [Example 399]
28 | A (EC1.5<1 μM) | ≥ 150 | – | – | – | Cc1cncc(NC(=O)N2c3nc(N4CCCC(C(F)(F)F)C4)ccc3N3CCC[C@H]2C3)c1 (stereo partly drawn) [Example 289]
29 | A (EC1.5<1 μM) | ≥ 150 | – | – | – | O=C(Nc1ccccn1)N1c2nc(-c3ccnc(N4CCC(F)(F)C4)c3)ccc2N2CC[C@H]1C2 [Example 388]
30 | – | – | ≥ 150 | A (EC1.5<1 μM) | – | NS(=O)(=O)c1ccc(NC(=O)N2c3nc(-c4cccc(C(F)(F)F)c4)ccc3N3CC[C@H]2C3)cc1 [Example 643]
31 | – | – | ≥ 150 | – | A (EC1.5<1 μM) | O=C(Nc1ccncc1F)N1c2nc(-c3cccc(N4CCCC4)c3)ccc2N2CC[C@H]1C2 [Example 150]
32 | A (EC1.5<1 μM) | ≥ 150 | – | – | – | O=C(Nc1cccc(-n2cncn2)c1)N1c2nc(-c3cccc(C(F)(F)F)c3)ccc2N2CC[C@H]1C2 [Example 581]
33 | – | – | ≥ 150 | A (EC1.5<1 μM) | – | O=C(Nc1cccc(-c2cccnc2)c1)N1c2nc(-c3cccc(C(F)(F)F)c3)ccc2N2CC[C@H]1C2 [Example 660]
34 | B (EC1.5 1-25 μM) | ≥ 150 | – | – | – | Cc1cc(-c2ccc3c(n2)N(C(=O)Nc2ccncn2)[C@H]2CCN3C2)ccn1 [Example 468]
35 | – | – | ≥ 150 | – | B (EC1.5 1-25 μM) | Cc1nc(NC(=O)N2c3nc(-c4cccc(C(F)(F)F)c4)ccc3N3CC[C@H]2C3)nc2c1CCC2 [Example 91]
36 | – | – | ≥ 150 | A (EC1.5<1 μM) | – | CC(C)(C)OC(=O)NCC#Cc1ccc(NC(=O)N2c3nc(-c4cccc(C(F)(F)F)c4)ccc3N3CC[C@H]2C3)cc1-c1cnco1 [Example 751]
37 | – | – | ≥ 150 | – | A (EC1.5<1 μM) | O=C(Nc1cccnc1)N1c2nc(-c3cccc(C(F)(F)F)c3)ccc2N2CCC[C@@H]1C2 [Example 194]
38 | A (EC1.5<1 μM) | ≥ 150 | – | – | – | O=C(Nc1ccccn1)N1c2nc(-c3cncc(C(F)(F)F)c3)ccc2N2CC[C@H]1C2 [Example 316]
39 | – | – | ≥ 150 | A (EC1.5<1 μM) | – | CN(C)c1ccnc(NC(=O)N2c3nc(-c4cccc(C(F)(F)F)c4)ccc3N3CC[C@H]2C3)n1 [Example 747]
40 | – | – | ≥ 150 | A (EC1.5<1 μM) | – | O=C(Nc1ccncc1)N1c2nc(-c3cccc(C(F)(F)F)c3)ccc2N2CC[C@H]1C2 [Example 817]
41 | C (EC1.5>25 μM) | < 150 | – | – | – | Cc1noc(C)c1-c1ccc2c(n1)N(C(=O)Nc1cnccn1)[C@H]1CCN2C1 [Example 413]
42 | – | – | ≥ 150 | – | B (EC1.5 1-25 μM) | O=C(Nc1cccnn1)N1c2nc(-c3cccc(C(F)(F)F)c3)ccc2N2CCC1CC2 [Example 171]
43 | A (EC1.5<1 μM) | ≥ 150 | – | – | – | COc1cc(NC(=O)N2c3nc(-c4cccc(N5CC[C@@H](F)C5)c4)ccc3N3CC[C@H]2C3)ncn1 [Example 281]
44 | B (EC1.5 1-25 μM) | ≥ 150 | – | – | – | Cc1ccncc1-c1ccc2c(n1)N(C(=O)Nc1cccnc1)[C@H]1CCCN2C1 [Example 516]
45 | A (EC1.5<1 μM) | ≥ 150 | – | – | – | O=C(Nc1ccncc1F)N1c2nc(-c3cccc(Cl)c3)ccc2N2CCC[C@H]1C2 [Example 421]
46 | B (EC1.5 1-25 μM) | ≥ 150 | – | – | – | Cc1nc(NC(=O)N2c3nc(-c4cncc(F)c4)ccc3N3CCC[C@H]2C3)sc1C [Example 471]
47 | – | – | ≥ 150 | – | A (EC1.5<1 μM) | O=C(Nc1ccncn1)N1c2nc(-c3cccc(OC(F)(F)F)c3)ccc2N2CC[C@H]1C2 [Example 166]
48 | B (EC1.5 1-25 μM) | ≥ 150 | – | – | – | COc1cc(NC(=O)N2c3nc(-c4ccnc(C)c4)ccc3N3CC[C@H]2C3)ncn1 [Example 240]
